Values quoted from earlier work as cited in patent US6352979B1, “Method of treating snakebite and complications resulting therefrom” (priority 2001, dated 2002).

Experiments:
mice = conditions: doses higher than 3750 mg/kg (accepted oral LD50 for common table salt)
humans = conditions: doses exceeding 40 g/m^2
dogs = conditions: doses higher than 3750 mg/kg (accepted oral LD50 for common table salt)

Compound | adverse effects after intravenous administration (mice) | adverse effects after administration to humans (humans) | adverse effects after intravenous administration (dogs) | accepted oral LD50 [mg/kg]
O=S(=O)([O-])CCSSCCS(=O)(=O)[O-].[Na+].[Na+] [Dimesna, disodium 2,2′-dithiobis ethane sulfonate] | no adverse effects | no adverse effects | no adverse effects | 
[Cl-].[Na+] [common table salt] |  |  |  | 3750
